Each compound was assayed against T1, human PKCθ full length enzyme (Homo sapiens, UniProt Q04759) (assay: PKCθ IMAP assay (fluorescence polarization)). Conditions: human PKCθ full length enzyme, IMAP; average value; read-out: IC50 PKCθ IMAP.
T1 construct: human PKCθ full length enzyme (Panvera Cat# P2996); purchased Panvera P2996
Type: biochemical

T1 sequence (Q04759 whole entry): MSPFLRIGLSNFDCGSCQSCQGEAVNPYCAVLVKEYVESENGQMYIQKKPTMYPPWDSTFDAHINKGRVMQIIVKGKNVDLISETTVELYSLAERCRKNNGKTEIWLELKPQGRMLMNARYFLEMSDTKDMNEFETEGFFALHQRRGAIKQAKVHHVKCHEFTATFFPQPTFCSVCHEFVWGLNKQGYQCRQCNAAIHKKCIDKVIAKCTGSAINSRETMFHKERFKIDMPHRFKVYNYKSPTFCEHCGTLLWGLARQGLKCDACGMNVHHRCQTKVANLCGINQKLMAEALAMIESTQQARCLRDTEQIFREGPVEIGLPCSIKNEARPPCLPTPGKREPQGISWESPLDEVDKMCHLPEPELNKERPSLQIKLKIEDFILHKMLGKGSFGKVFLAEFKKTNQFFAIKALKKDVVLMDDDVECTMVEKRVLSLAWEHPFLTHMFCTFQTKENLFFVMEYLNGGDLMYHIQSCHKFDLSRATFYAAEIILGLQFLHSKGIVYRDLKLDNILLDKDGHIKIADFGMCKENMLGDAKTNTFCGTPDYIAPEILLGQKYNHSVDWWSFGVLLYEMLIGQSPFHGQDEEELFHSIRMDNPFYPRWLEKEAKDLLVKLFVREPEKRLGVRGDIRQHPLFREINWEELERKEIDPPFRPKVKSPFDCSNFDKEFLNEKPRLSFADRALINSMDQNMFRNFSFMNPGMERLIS

Question: `N#Cc1cncc(-c2cccc(OCCNCCN3CCCC3)c2)c1Nc1ccc2[nH]ccc2c1` [Compound 177, 4-(1H-indol-5-ylamino)-5-(3-{2-[(2-pyrrolidin-1-ylethyl)amino]ethoxy}phenyl)nicotinonitrile] was tested. Which IC50 did it give?
Answer: 20 nM

Question: `CCc1c(Nc2c(C#N)cncc2-c2ccc(OC)c(OC)c2)ccc2[nH]ccc12` [Compound 305, 5-(3,4-dimethoxyphenyl)-4-[(4-ethyl-1H-indol-5-yl)amino]nicotinonitrile] was tested. Which IC50 did it give?
Answer: 60 nM

Question: For `Cc1c(Nc2c(C#N)cncc2-c2cc3cc(C4OCCCO4)ccc3o2)ccc2[nH]ccc12` [Compound 370, 5-[5-(1,3-dioxan-2-yl)-1-benzofuran-2-yl]-4-[(4-methyl-1H-indol-5-yl)amino]nicotinonitrile], which IC50 is on record?
Answer: 4 nM

Question: `Cc1c(Nc2c(C#N)cncc2-c2ccc(OCCCN3CCN(C)CC3)cc2)ccc2[nH]ccc12` [Compound 472, 4-[(4-methyl-1H-indol-5-yl)amino]-5-{4-[3-(4-methylpiperazin-1-yl)propoxy]phenyl}nicotinonitrile] was tested. Which IC50 did it give?
Answer: 19 nM

Question: With `COc1ccc(-c2cncc(C#N)c2Nc2ccc3[nH]ccc3c2C)cc1` [Compound 559, 5-(4-methoxyphenyl)-4-[(4-methyl-1H-indol-5-yl)amino]nicotinonitrile] as the compound, how does the IC50 read?
Answer: 6 nM

Question: Which IC50 does the source give for `N#Cc1cncc(-c2cccc(-c3ccc(C(=O)NCc4ccccn4)cc3)c2)c1Nc1ccc2[nH]ccc2c1` [Compound 212, 3′-[5-cyano-4-(1H-indol-5-ylamino)pyridin-3-yl]-N-(pyridin-2-ylmethyl)biphenyl-4-carboxamide] here?
Answer: 590 nM

Question: `CN(C)c1cccc(-c2cncc(C#N)c2Nc2cccc3[nH]ccc23)c1` [Compound 254, 5-[3-(dimethylamino)phenyl]-4-(1H-indol-4-ylamino)nicotinonitrile] was tested. Which IC50 did it give?
Answer: 80 nM

Question: How did the IC50 turn out when `COc1ccc(-c2cncc(C#N)c2Nc2ccc3[nH]ccc3c2)cc1OCCN(C)C` [Compound 236, 5-{3-[2-(dimethylamino)ethoxy]-4-methoxyphenyl}-4-(1H-indol-5-ylamino)nicotinonitrile] was run?
Answer: 200 nM

Question: For `Cc1c(Nc2c(C#N)cncc2-c2ccc(OCCN3CCC(N4CCCC4)CC3)cc2)ccc2[nH]ccc12` [Compound 423, 4-[(4-methyl-1H-indol-5-yl)amino]-5-{4-[2-(4-pyrrolidin-1-ylpiperidin-1-yl)ethoxy]phenyl}nicotinonitrile], which IC50 is on record?
Answer: 11 nM

Question: `N#Cc1cncc(-c2cc3ccccc3o2)c1Nc1cccc2[nH]ccc12` [Compound 318, 5-(1-benzofuran-2-yl)-4-(1H-indol-4-ylamino)nicotinonitrile] was tested. Which IC50 did it give?
Answer: 10 nM

Question: How did the IC50 turn out when `N#Cc1cncc(-c2ccc(OC[C@H](N)Cc3ccccc3)cc2)c1Nc1cccc2[nH]ccc12` [Compound 458, 5-(4-{[(2R)-2-amino-3-phenylpropyl]oxy}phenyl)-4-(1H-indol-4-ylamino)nicotinonitrile] was run?
Answer: 14 nM

Question: How did the IC50 turn out when `N#Cc1cncc(-c2cc3cc(CN4CCCCC4)ccc3s2)c1Nc1cccc2[nH]ccc12` [Compound 283, 4-(1H-indol-4-ylamino)-5-[5-(piperidin-1-ylmethyl)-1-benzothien-2-yl]nicotinonitrile] was run?
Answer: 2 nM

Question: Which IC50 does the source give for `COc1ccc(C=O)cc1-c1cncc(C#N)c1Nc1ccc2[nH]ccc2c1C` [Compound 551, 5-(5-formyl-2-methoxyphenyl)-4-[(4-methyl-1H-indol-5-yl)amino]nicotinonitrile] here?
Answer: 28 nM

Question: With `COc1ccc(-c2cncc(C#N)c2Nc2ccc3[nH]ccc3c2)cc1OCCNCCc1ccncc1` [Compound 253, 4-(1H-indol-5-ylamino)-5-(4-methoxy-3-{2-[(2-pyridin-4-ylethyl)amino]ethoxy}phenyl)nicotinonitrile] as the compound, how does the IC50 read?
Answer: 50 nM

Question: With `COCCOc1ccc(-c2cncc(C#N)c2Nc2ccc3[nH]ccc3c2C)cc1OCCOC` [Compound 477, 5-[3,4-bis(2-methoxyethoxy)phenyl]-4-[(4-methyl-1H-indol-5-yl)amino]nicotinonitrile] as the compound, how does the IC50 read?
Answer: 72 nM

Question: Which IC50 does the source give for `Cc1c(Nc2c(C#N)cncc2-c2cnc(C=O)n2C)ccc2[nH]ccc12` [Compound 537, 5-(2-formyl-1-methyl-1H-imidazol-5-yl)-4-[(4-methyl-1H-indol-5-yl)amino]nicotinonitrile] here?
Answer: 23 nM

Question: With `CCCCN1CCN(CCOc2ccc(-c3cncc(C#N)c3Nc3ccc4[nH]ccc4c3C)cc2)CC1` [Compound 368, 5-{4-[2-(4-butylpiperazin-1-yl)ethoxy]phenyl}-4-[(4-methyl-1H-indol-5-yl)amino]nicotinonitrile] as the compound, how does the IC50 read?
Answer: 10 nM

Question: For `Cc1c(Nc2c(C#N)cncc2-c2cc(C=O)co2)ccc2[nH]ccc12` [Compound 517, 5-(4-formyl-2-furyl)-4-[(4-methyl-1H-indol-5-yl)amino]nicotinonitrile], which IC50 is on record?
Answer: 8 nM

Question: With `COc1ccc(-c2cncc(C#N)c2Nc2ccc3c(ccn3C)c2C)cc1OC` [Compound 555, 5-(3,4-dimethoxyphenyl)-4-[(1,4-dimethyl-1H-indol-5-yl)amino]nicotinonitrile] as the compound, how does the IC50 read?
Answer: 226 nM

Question: For `CN(C)c1ccc(-c2cncc(C#N)c2Nc2cccnc2)cc1` [Compound 291, 5-[4-(dimethylamino)phenyl]-4-(pyridin-3-ylamino)nicotinonitrile], which IC50 is on record?
Answer: 4860 nM

Question: For `COc1ccc(-c2cncc(C#N)c2Nc2ccc3[nH]ccc3c2)cc1OCCN1CCN(C)CC1` [Compound 231, 4-(1H-indol-5-ylamino)-5-{4-methoxy-3-[2-(4-methylpiperazin-1-yl)ethoxy]phenyl}nicotinonitrile], which IC50 is on record?
Answer: 250 nM

Question: For `Cc1c(Nc2c(C#N)cncc2-c2ccc(OCCCCCl)cc2)ccc2[nH]ccc12` [Compound 490, 5-[4-(4-chlorobutoxy)phenyl]-4-[(4-methyl-1H-indol-5-yl)amino]nicotinonitrile], which IC50 is on record?
Answer: 51 nM

Question: Which IC50 does the source give for `Cc1c(Nc2c(C#N)cncc2-c2ccc(NCCN3CCOCC3)nc2)ccc2[nH]ccc12` [Compound 362, 4-[(4-methyl-1H-indol-5-yl)amino]-6′-[(2-morpholin-4-ylethyl)amino]-3,3′bipyridine-5-carbonitrile] here?
Answer: 50 nM

Question: How did the IC50 turn out when `N#Cc1cncc(-c2cccc(C(=O)O)c2)c1Nc1cccc2[nH]ccc12` [Compound 327, 3-[5-cyano-4-(1H-indol-4-ylamino)pyridin-3-yl]benzoic acid] was run?
Answer: 120 nM

Question: How did the IC50 turn out when `COc1ccc(-c2cncc(C#N)c2Nc2ccc3[nH]ccc3c2)cc1OCCN1CCC(O)CC1` [Compound 238, 5-{3-[2-(4-hydroxypiperidin-1-yl)ethoxy]-4-methoxyphenyl}-4-(1H-indol-5-ylamino)nicotinonitrile] was run?
Answer: 210 nM

Question: With `COc1ccc(-c2cncc(C#N)c2Nc2ccc3[nH]ccc3c2)cc1OCCN(C(C)C)C(C)C` [Compound 180, 5-{3-[2-(diisopropylamino)ethoxy]-4-methoxyphenyl}-4-(1H-indol-5-ylamino)nicotinonitrile] as the compound, how does the IC50 read?
Answer: 690 nM

Question: For `Cc1c(Nc2c(C#N)cncc2-c2cc3ccccc3o2)ccc2[nH]ccc12` [Compound 222, 5-(1-benzofuran-2-yl)-4-[(4-methyl-1H-indol-5-yl)amino]nicotinonitrile], which IC50 is on record?
Answer: 1 nM

Question: For `Cc1c(Nc2c(C#N)cncc2-c2nccs2)ccc2[nH]ccc12` [Compound 541, 4-[(4-methyl-1H-indol-5-yl)amino]-5-(1,3-thiazol-2-yl)nicotinonitrile], which IC50 is on record?
Answer: 7 nM

Question: Which IC50 does the source give for `COc1ccc(-c2cncc(C#N)c2Nc2ccc3[nH]ccc3c2)cc1-c1ccc(Cl)cc1` [Compound 190, 5-(4′-chloro-6-methoxybiphenyl-3-yl)-4-(1H-indol-5-ylamino)nicotinonitrile] here?
Answer: 180 nM

Question: For `Cc1c(Nc2c(C#N)cncc2-c2cnc(N3CCCCC3)nc2)ccc2[nH]ccc12` [Compound 510, 4-[(4-methyl-1H-indol-5-yl)amino]-5-(2-piperidin-1-ylpyrimidin-5-yl)nicotinonitrile], which IC50 is on record?
Answer: 300 nM

Question: How did the IC50 turn out when `N#Cc1cncc(-c2ccccc2)c1Nc1ccc2[nH]ccc2c1` [Compound 257, 4-(1H-indol-5-ylamino)-5-phenylnicotinonitrile] was run?
Answer: 100 nM

Question: `Cc1c(Nc2c(C#N)cncc2-c2cc3cc(CN4CCOCC4)ccc3o2)ccc2[nH]ccc12` [Compound 388, 4-[(4-methyl-1H-indol-5-yl)amino]-5-[5-(morpholin-4-ylmethyl)-1-benzofuran-2-yl]nicotinonitrile] was tested. Which IC50 did it give?
Answer: 13 nM

Question: `Cc1c(Nc2c(C#N)cncc2-c2cc3cc(CNCC(O)CO)ccc3o2)ccc2[nH]ccc12` (stereo not shown) [Compound 385, 5-(5-{[(2,3-dihydroxypropyl)amino]methyl}-1-benzofuran-2-yl)-4-[(4-methyl-1H-indol-5-yl)amino]nicotinonitrile] was tested. Which IC50 did it give?
Answer: 2 nM

Question: How did the IC50 turn out when `COc1ccc(-c2cncc(C#N)c2Nc2cccc3[nH]ccc23)cc1OCCNCCc1cccnc1` [Compound 354, 4-(1H-indol-4-ylamino)-5-(4-methoxy-3-{2-[(2-pyridin-3-ylethyl)amino]ethoxy}phenyl)nicotinonitrile] was run?
Answer: 4 nM

Question: How did the IC50 turn out when `Cc1c(Nc2c(C#N)cncc2-c2cc3ccccc3n2C)ccc2[nH]ccc12` [Compound 586, 5-(1-methyl-1H-indol-2-yl)-4-[(4-methyl-1H-indol-5-yl)amino]nicotinonitrile] was run?
Answer: 8.7 nM

Question: For `COc1ccc(-c2c[n+]([O-])cc(C#N)c2Nc2ccc3[nH]ccc3c2)cc1OC` [Compound 523, 5-(3,4-dimethoxyphenyl)-4-(1H-indol-5-ylamino)nicotinonitrile 1-oxide], which IC50 is on record?
Answer: 737 nM

Question: For `Cc1c(Nc2c(C#N)cncc2-c2csc3ccccc23)ccc2[nH]ccc12` [Compound 585, 5-(1-benzothiophen-3-yl)-4-[(4-methyl-1H-indol-5-yl)amino]nicotinonitrile], which IC50 is on record?
Answer: 88 nM

Question: For `Cc1c(Nc2c(C#N)cncc2-c2cc3cc(CN4CCN(CCN(C)C)CC4)ccc3o2)ccc2[nH]ccc12` [Compound 396, 5-[5-({4-[2-(dimethylamino)ethyl]piperazin-1-yl}methyl)-1-benzofuran-2-yl]-4-[(4-methyl-1H-indol-5-yl)amino]nicotinonitrile], which IC50 is on record?
Answer: 2 nM

Question: Which IC50 does the source give for `N#Cc1cncc(-c2cccc(CO)c2)c1Nc1cccc2[nH]ccc12` [Compound 270, 5-[3-(hydroxymethyl)phenyl]-4-(1H-indol-4-ylamino)nicotinonitrile] here?
Answer: 20 nM

Question: `COc1ccc(-c2cncc(C#N)c2N[C@H]2CC[C@H](N)CC2)cc1OC` [Compound 524, 4-[(trans-4-aminocyclohexyl)amino]-5-(3,4-dimethoxyphenyl)nicotinonitrile] was tested. Which IC50 did it give?
Answer: 4100 nM
